Test results reported in PubChem BioAssay AID1259407 (Chemical Carcinogenesis Research Information System (CCRIS), 2018).
The source made the active and inactive calls. No rule for the calls is given here.

Test system: CCRIS mutagenicity, Ames/micronucleus/aberration tests
Experiment: CCRIS mutagenicity studies
[1] = Test System: AMES SALMONELLA TYPHIMURIUM, Strain/Indicator: TA98, Metabolic Activation: NONE, Method: PREINCUBATION
[2] = Test System: AMES SALMONELLA TYPHIMURIUM, Strain/Indicator: TA100, Metabolic Activation: NONE, Method: PREINCUBATION
[3] = Test System: AMES SALMONELLA TYPHIMURIUM, Strain/Indicator: TA98, Metabolic Activation: NONE, Method: STANDARD PLATE
[4] = Test System: AMES SALMONELLA TYPHIMURIUM, Strain/Indicator: TA98, Metabolic Activation: RAT, LIVER, S-9, AROCLOR 1254, Method: STANDARD PLATE
[5] = Test System: AMES SALMONELLA TYPHIMURIUM, Strain/Indicator: TA100, Metabolic Activation: NONE, Method: STANDARD PLATE
[6] = Test System: AMES SALMONELLA TYPHIMURIUM, Strain/Indicator: TA100, Metabolic Activation: RAT, LIVER, S-9, AROCLOR 1254, Method: STANDARD PLATE
[7] = Test System: AMES SALMONELLA TYPHIMURIUM, Strain/Indicator: TA1535, Metabolic Activation: NONE, Method: STANDARD PLATE
[8] = Test System: AMES SALMONELLA TYPHIMURIUM, Strain/Indicator: TA1535, Metabolic Activation: RAT, LIVER, S-9, AROCLOR 1254, Method: STANDARD PLATE
[9] = Test System: AMES SALMONELLA TYPHIMURIUM, Strain/Indicator: TA1537, Metabolic Activation: NONE, Method: STANDARD PLATE
[10] = Test System: AMES SALMONELLA TYPHIMURIUM, Strain/Indicator: TA1537, Metabolic Activation: RAT, LIVER, S-9, AROCLOR 1254, Method: STANDARD PLATE

SMILES: NCCCCCCCCCCCC(=O)O
- mutagenic call [1]: inactive; negative
- mutagenic call (Test System: AMES SALMONELLA TYPHIMURIUM, Strain/Indicator: TA98, Metabolic Activation: RAT LIVER S-9, PHENOBARBITAL AND BETA-NAPHTHOFLAVONE, Method: PREINCUBATION): inactive; negative
- mutagenic call [2]: inactive; negative
- mutagenic call (Test System: AMES SALMONELLA TYPHIMURIUM, Strain/Indicator: TA100, Metabolic Activation: RAT LIVER S-9, PHENOBARBITAL AND BETA-NAPHTHOFLAVONE, Method: PREINCUBATION): inactive; negative
- mutagenic call (Test System: AMES SALMONELLA TYPHIMURIUM, Strain/Indicator: TA1535, Metabolic Activation: NONE, Method: PREINCUBATION): inactive; negative
- mutagenic call (Test System: AMES SALMONELLA TYPHIMURIUM, Strain/Indicator: TA1535, Metabolic Activation: RAT LIVER S-9, PHENOBARBITAL AND BETA-NAPHTHOFLAVONE, Method: PREINCUBATION): inactive; negative
- mutagenic call (Test System: AMES SALMONELLA TYPHIMURIUM, Strain/Indicator: TA1537, Metabolic Activation: NONE, Method: PREINCUBATION): inactive; negative
- mutagenic call (Test System: AMES SALMONELLA TYPHIMURIUM, Strain/Indicator: TA1537, Metabolic Activation: RAT LIVER S-9, PHENOBARBITAL AND BETA-NAPHTHOFLAVONE, Method: PREINCUBATION): inactive; negative
- mutagenic call (Test System: E.COLI, Strain/Indicator: WP2UVRA/PKM101, Metabolic Activation: NONE, Method: PREINCUBATION): inactive; negative
- mutagenic call (Test System: E.COLI, Strain/Indicator: WP2UVRA/PKM101, Metabolic Activation: RAT LIVER S-9, PHENOBARBITAL AND BETA-NAPHTHOFLAVONE, Method: PREINCUBATION): inactive; negative

SMILES: C=CCNC(N)=O
- mutagenic call (Test System: AMES SALMONELLA TYPHIMURIUM, Strain/Indicator: TA98, Metabolic Activation: HAMSTER, LIVER, S-9, AROCLOR 1254 (30%), Method: PREINCUBATION): inactive; negative
- mutagenic call [1]: inactive; negative
- mutagenic call (Test System: AMES SALMONELLA TYPHIMURIUM, Strain/Indicator: TA100, Metabolic Activation: HAMSTER, LIVER, S-9, AROCLOR 1254 (5, 10 OR 30%), Method: PREINCUBATION): inactive; negative
- mutagenic call [2]: inactive; negative
- mutagenic call (Test System: AMES SALMONELLA TYPHIMURIUM, Strain/Indicator: TA100, Metabolic Activation: RAT, LIVER, S-9, AROCLOR 1254 (30%), Method: PREINCUBATION): inactive; negative
- mutagenic call (Test System: AMES SALMONELLA TYPHIMURIUM, Strain/Indicator: TA1535, Metabolic Activation: HAMSTER, LIVER, S-9, AROCLOR 1254 (5 OR 10%), Method: PREINCUBATION): inactive; negative
- mutagenic call (Test System: AMES SALMONELLA TYPHIMURIUM, Strain/Indicator: TA1535, Metabolic Activation: HAMSTER, LIVER, S-9, AROCLOR 1254 (30%), Method: PREINCUBATION): active; positive

SMILES: CN1CCN(C2=Nc3ccccc3Oc3ccc(Cl)cc32)CC1
- mutagenic call [3]: inactive; negative
- mutagenic call [4]: inactive; negative
- mutagenic call [5]: inactive; negative
- mutagenic call [6]: inactive; negative
- mutagenic call [7]: inactive; negative
- mutagenic call [8]: inactive; negative
- mutagenic call [9]: inactive; negative
- mutagenic call [10]: inactive; negative

SMILES: CC(=O)C1(c2ccccc2)CCNCC1
- mutagenic call (Test System: AMES SALMONELLA TYPHIMURIUM, Strain/Indicator: TA98, Metabolic Activation: HAMSTER, LIVER, S-9, AROCLOR 1254, Method: STANDARD PLATE): inactive; negative
- mutagenic call [3]: inactive; negative
- mutagenic call [4]: inactive; negative
- mutagenic call (Test System: AMES SALMONELLA TYPHIMURIUM, Strain/Indicator: TA100, Metabolic Activation: HAMSTER, LIVER, S-9, AROCLOR 1254, Method: STANDARD PLATE): inactive; negative
- mutagenic call [5]: inactive; negative
- mutagenic call [6]: inactive; negative
- mutagenic call (Test System: AMES SALMONELLA TYPHIMURIUM, Strain/Indicator: TA1535, Metabolic Activation: HAMSTER, LIVER, S-9, AROCLOR 1254, Method: STANDARD PLATE): inactive; negative
- mutagenic call [7]: inactive; negative
- mutagenic call [8]: inactive; negative
- mutagenic call (Test System: AMES SALMONELLA TYPHIMURIUM, Strain/Indicator: TA1537, Metabolic Activation: HAMSTER, LIVER, S-9, AROCLOR 1254, Method: STANDARD PLATE): inactive; negative
- mutagenic call [9]: inactive; negative
- mutagenic call [10]: inactive; negative
- mutagenic call (Test System: AMES SALMONELLA TYPHIMURIUM, Strain/Indicator: TA1538, Metabolic Activation: HAMSTER, LIVER, S-9, AROCLOR 1254, Method: STANDARD PLATE): inactive; negative
- mutagenic call (Test System: AMES SALMONELLA TYPHIMURIUM, Strain/Indicator: TA1538, Metabolic Activation: NONE, Method: STANDARD PLATE): inactive; negative
- mutagenic call (Test System: AMES SALMONELLA TYPHIMURIUM, Strain/Indicator: TA1538, Metabolic Activation: RAT, LIVER, S-9, AROCLOR 1254, Method: STANDARD PLATE): inactive; negative
- mutagenic call (Test System: MOUSE LYMPHOMA, Strain/Indicator: L5178Y (TK+/TK-), Metabolic Activation: NONE, Method: SUSPENSION/PLATE): inactive; negative. reevaluation of results: negative
- mutagenic call (Test System: MOUSE LYMPHOMA, Strain/Indicator: L5178Y (TK+/TK-), Metabolic Activation: RAT, LIVER, S-9, AROCLOR 1254, Method: SUSPENSION/PLATE): inactive; negative. reevaluation of results: inconclusive

SMILES: CCC(=O)Nc1snc2ccccc12
- mutagenic call [5]: inactive; negative
- mutagenic call (Test System: AMES SALMONELLA TYPHIMURIUM, Strain/Indicator: TA100, Metabolic Activation: S-9, Method: STANDARD PLATE): inactive; negative
- mutagenic call [9]: inactive; negative
- mutagenic call (Test System: AMES SALMONELLA TYPHIMURIUM, Strain/Indicator: TA1537, Metabolic Activation: S-9, Method: STANDARD PLATE): inactive; negative

SMILES: Cc1cc2c(C(C)C)c(O)c(O)c(C=O)c2c(O)c1-c1c(C)cc2c(C(C)C)c(O)c(O)c(C=O)c2c1O
- mutagenic call [3]: inactive; negative
- mutagenic call (Test System: AMES SALMONELLA TYPHIMURIUM, Strain/Indicator: TA98, Metabolic Activation: RAT, LIVER, S-9, AROCLOR 1254 OR PHENOBARBITAL, Method: STANDARD PLATE): inactive; negative
- mutagenic call [5]: inactive; negative
- mutagenic call (Test System: AMES SALMONELLA TYPHIMURIUM, Strain/Indicator: TA100, Metabolic Activation: RAT, LIVER, S-9, AROCLOR 1254 OR PHENOBARBITAL, Method: STANDARD PLATE): inactive; negative

SMILES: COc1c(O)c2c(c3cc(C(=O)N4CCc5c4c(O)c(OC)c4[nH]c(C(=O)N6C[C@H]7C[C@@]78C6=CC(=O)c6[nH]cc(C)c68)cc54)[nH]c13)CCN2C(N)=O
- mutagenic call [3]: inactive; negative
- mutagenic call [4]: inactive; negative
- mutagenic call [5]: inactive; negative
- mutagenic call (Test System: CHINESE HAMSTER V-79, Strain/Indicator: V-79/6-THIOGUANINE, Metabolic Activation: NONE): active; positive

SMILES: CN(C)CCNC(=O)c1cccc2c(N)c3ccccc3nc12
- mutagenic call [9]: active; positive
